Molecular target: T1, active p38 alpha enzyme (Upstate Biotechnology) (Homo sapiens, UniProt Q16539)
T1 construct: purchased Upstate Biotechnology
Test: p38α biochemical assay (ATP turnover, luminescent detection, Cambrex PKlight)
Conditions: p38α kinase; Table 1 Biological Activity
How it was run: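 Luminescent ATP-depletion readout measures total ATP turnover by p38α phosphorylating whole MapkapK2 protein. ATP 1.4 uM final; 30C, 2 h. Compounds delivered from DMSO.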

T1 sequence (Q16539 whole entry): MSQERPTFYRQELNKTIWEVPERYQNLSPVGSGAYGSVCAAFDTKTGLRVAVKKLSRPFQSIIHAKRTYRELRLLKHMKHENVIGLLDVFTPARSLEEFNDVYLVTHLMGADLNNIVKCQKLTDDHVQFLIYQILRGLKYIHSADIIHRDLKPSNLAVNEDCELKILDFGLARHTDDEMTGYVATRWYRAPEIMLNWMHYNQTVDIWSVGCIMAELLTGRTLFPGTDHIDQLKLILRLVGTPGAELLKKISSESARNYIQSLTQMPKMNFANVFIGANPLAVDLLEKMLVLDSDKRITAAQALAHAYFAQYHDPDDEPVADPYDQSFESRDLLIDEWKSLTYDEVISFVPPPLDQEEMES

IC50 [µM] | Structure (SMILES)
> 1 | CC(C)NC(=O)c1csc(-c2c(-c3ccc(F)cc3)n[nH]c2C2CCN(C(=O)/C=C/c3ccccc3O)CC2)n1 [Example 880]
> 1 | CC(=O)c1ccc(C(=O)N2CCC(c3[nH]nc(-c4ccc(F)cc4)c3-c3nc(C(=O)NC(C)C)cs3)CC2)cc1 [Example 881]
> 1 | CC(C)NC(=O)c1csc(-c2c(-c3ccc(F)cc3)n[nH]c2C2CCN(C(=O)/C=C/c3cccc(O)c3)CC2)n1 [Example 882]
> 1 | CC(=O)c1cccc(C(=O)N2CCC(c3[nH]nc(-c4ccc(F)cc4)c3-c3nc(C(=O)NC(C)C)cs3)CC2)c1 [Example 883]
> 1 | CC(=O)c1ccccc1C(=O)N1CCC(c2[nH]nc(-c3ccc(F)cc3)c2-c2nc(C(=O)NC(C)C)cs2)CC1 [Example 884]
> 1 | CC(C)NC(=O)c1csc(-c2c(-c3ccc(F)cc3)n[nH]c2C2CCN(C(=O)c3ccc(C(C)C)cc3)CC2)n1 [Example 885]
> 1 | Cc1ccccc1CCC(=O)N1CCC(c2[nH]nc(-c3ccc(F)cc3)c2-c2nc(C(=O)NC(C)C)cs2)CC1 [Example 886]
> 1 | Cc1cccc(CCC(=O)N2CCC(c3[nH]nc(-c4ccc(F)cc4)c3-c3nc(C(=O)NC(C)C)cs3)CC2)c1 [Example 887]
> 1 | CCC(C(=O)N1CCC(c2[nH]nc(-c3ccc(F)cc3)c2-c2nc(C(=O)NC(C)C)cs2)CC1)c1ccccc1 (stereo not drawn) [Example 888]
> 1 | CCCc1ccc(C(=O)N2CCC(c3[nH]nc(-c4ccc(F)cc4)c3-c3nc(C(=O)NC(C)C)cs3)CC2)cc1 [Example 890]
> 1 | CC(C)NC(=O)c1csc(-c2c(-c3ccc(F)cc3)n[nH]c2C2CCN(C(=O)c3ccc4c(c3)OCO4)CC2)n1 [Example 891]
> 1 | CC(C)NC(=O)c1csc(-c2c(-c3ccc(F)cc3)n[nH]c2C2CCCN(C(=O)/C=C/c3ccccc3F)CC2)n1 (stereo not drawn) [Example 892]
> 1 | CCOc1ccccc1C(=O)N1CCC(c2[nH]nc(-c3ccc(F)cc3)c2-c2nc(C(=O)NC(C)C)cs2)CC1 [Example 893]
> 1 | Cc1ccccc1OCC(=O)N1CCC(c2[nH]nc(-c3ccc(F)cc3)c2-c2nc(C(=O)NC(C)C)cs2)CC1 [Example 894]
> 1 | CC(C)NC(=O)c1csc(-c2c(-c3ccc(F)cc3)n[nH]c2C2CCN(C(=O)CCc3ccccc3O)CC2)n1 [Example 895]
> 1 | COc1ccccc1CC(=O)N1CCC(c2[nH]nc(-c3ccc(F)cc3)c2-c2nc(C(=O)NC(C)C)cs2)CC1 [Example 896]
> 1 | CC(C)NC(=O)c1csc(-c2c(-c3ccc(F)cc3)n[nH]c2C2CCN(C(=O)C(C)c3ccc(O)cc3)CC2)n1 (stereo not drawn) [Example 897]
> 1 | CC(C)NC(=O)c1csc(-c2c(-c3ccc(F)cc3)n[nH]c2C2CCN(C(=O)c3ccccc3[N+](=O)[O-])CC2)n1 [Example 898]
> 1 | CC(C)NC(=O)c1csc(-c2c(-c3ccc(F)cc3)n[nH]c2C2CCN(C(=O)c3cccc([N+](=O)[O-])c3)CC2)n1 [Example 899]
> 1 | COc1cccc(O)c1C(=O)N1CCC(c2[nH]nc(-c3ccc(F)cc3)c2-c2nc(C(=O)NC(C)C)cs2)CC1 [Example 900]
> 1 | COc1ccc(O)c(C(=O)N2CCC(c3[nH]nc(-c4ccc(F)cc4)c3-c3nc(C(=O)NC(C)C)cs3)CC2)c1 [Example 901]

IC50 [µM] | Structure (SMILES)
> 1 | COc1ccc(C(=O)N2CCC(c3[nH]nc(-c4ccc(F)cc4)c3-c3nc(C(=O)NC(C)C)cs3)CC2)c(O)c1 [Example 902]
> 1 | COc1ccc(C(=O)N2CCC(c3[nH]nc(-c4ccc(F)cc4)c3-c3nc(C(=O)NC(C)C)cs3)CC2)cc1O [Example 903]
≤ 1 | CC(C)NC(=O)c1csc(-c2c(-c3ccc(F)cc3)n[nH]c2C2CCN(C(=O)c3cc(O)c(O)c(O)c3)CC2)n1 [Example 904]
> 1 | CC(C)NC(=O)c1csc(-c2c(-c3ccc(F)cc3)n[nH]c2C2CCN(C(=O)Cc3ccc(O)c(F)c3)CC2)n1 [Example 905]
> 1 | Cc1cc(C(=O)N2CCC(c3[nH]nc(-c4ccc(F)cc4)c3-c3nc(C(=O)NC(C)C)cs3)CC2)cc(Cl)n1 [Example 906]
> 1 | CC(C)NC(=O)c1csc(-c2c(-c3ccc(F)cc3)n[nH]c2C2CCN(C(=O)Cc3c(F)cccc3F)CC2)n1 [Example 907]
≤ 1 | CC(C)NC(=O)c1csc(-c2c(-c3ccc(F)cc3)n[nH]c2C2CCN(C(=O)c3cccc4ccccc34)CC2)n1 [Example 908]
> 1 | CC(C)NC(=O)c1csc(-c2c(-c3ccc(F)cc3)n[nH]c2C2CCN(C(=O)c3ccc(Cl)cc3O)CC2)n1 [Example 909]
> 1 | CC(C)NC(=O)c1csc(-c2c(-c3ccc(F)cc3)n[nH]c2C2CCN(C(=O)c3cc(Cl)ccc3O)CC2)n1 [Example 910]
> 1 | CC(C)NC(=O)c1csc(-c2c(-c3ccc(F)cc3)n[nH]c2C2CCN(C(=O)c3ccc4ncccc4c3)CC2)n1 [Example 911]
> 1 | CC(C)NC(=O)c1csc(-c2c(-c3ccc(F)cc3)n[nH]c2C2CCN(C(=O)c3cnc(O)c(Cl)c3)CC2)n1 [Example 912]
> 1 | CC(C)NC(=O)c1csc(-c2c(-c3ccc(F)cc3)n[nH]c2C2CCN(C(=O)c3ccc(F)cc3Cl)CC2)n1 [Example 913]
> 1 | CC(C)NC(=O)c1csc(-c2c(-c3ccc(F)cc3)n[nH]c2C2CCN(C(=O)c3c(F)cccc3Cl)CC2)n1 [Example 914]
> 1 | CC(C)NC(=O)c1csc(-c2c(-c3ccc(F)cc3)n[nH]c2C2CCN(C(=O)CNC(=O)OC(C)(C)C)CC2)n1 [Example 915]
≤ 1 | Cc1c(C(=O)N2CCC(c3[nH]nc(-c4ccc(F)cc4)c3-c3nc(C(=O)NC(C)C)cs3)CC2)oc2ccccc12 [Example 916]
> 1 | CC(C)NC(=O)c1csc(-c2c(-c3ccc(F)cc3)n[nH]c2C2CCN(C(=O)CC3Cc4ccccc4C3)CC2)n1 [Example 917]
> 1 | CC(C)NC(=O)c1csc(-c2c(-c3ccc(F)cc3)n[nH]c2C2CCN(C(=O)C3CCc4ccccc4C3)CC2)n1 (stereo not drawn) [Example 918]
> 1 | COc1ccccc1/C=C/C(=O)N1CCC(c2[nH]nc(-c3ccc(F)cc3)c2-c2nc(C(=O)NC(C)C)cs2)CC1 [Example 919]
> 1 | CC(C)NC(=O)c1csc(-c2c(-c3ccc(F)cc3)n[nH]c2C2CCN(C(=O)c3csc4ccccc34)CC2)n1 [Example 920]
> 1 | CC(C)NC(=O)c1csc(-c2c(-c3ccc(F)cc3)n[nH]c2C2CCN(C(=O)c3cc4ccccc4s3)CC2)n1 [Example 921]
> 1 | CCCCc1ccc(C(=O)N2CCC(c3[nH]nc(-c4ccc(F)cc4)c3-c3nc(C(=O)NC(C)C)cs3)CC2)cc1 [Example 922]

IC50 [µM] | Structure (SMILES)
≤ 1 | CC(C)NC(=O)c1csc(-c2c(-c3ccc(F)cc3)n[nH]c2C2CCN(C(=O)c3ccc(C(C)(C)C)cc3)CC2)n1 [Example 923]
> 1 | CC(C)NC(=O)c1csc(-c2c(-c3ccc(F)cc3)n[nH]c2C2CCN(C(=O)c3ccc(N(C)C=O)cc3)CC2)n1 [Example 924]
≤ 1 | CC(=O)Nc1cccc(C(=O)N2CCC(c3[nH]nc(-c4ccc(F)cc4)c3-c3nc(C(=O)NC(C)C)cs3)CC2)c1 [Example 925]
> 1 | CC(C)NC(=O)c1csc(-c2c(-c3ccc(F)cc3)n[nH]c2C2CCN(C(=O)COc3ccccc3C=O)CC2)n1 [Example 926]
> 1 | CC(=O)Oc1ccc(C(=O)N2CCC(c3[nH]nc(-c4ccc(F)cc4)c3-c3nc(C(=O)NC(C)C)cs3)CC2)cc1 [Example 927]
> 1 | COC(=O)c1ccc(C(=O)N2CCC(c3[nH]nc(-c4ccc(F)cc4)c3-c3nc(C(=O)NC(C)C)cs3)CC2)cc1 [Example 928]
> 1 | CC(=O)Oc1cccc(C(=O)N2CCC(c3[nH]nc(-c4ccc(F)cc4)c3-c3nc(C(=O)NC(C)C)cs3)CC2)c1 [Example 929]
> 1 | CC(=O)Oc1ccccc1C(=O)N1CCC(c2[nH]nc(-c3ccc(F)cc3)c2-c2nc(C(=O)NC(C)C)cs2)CC1 [Example 930]
> 1 | CC(C)NC(=O)c1csc(-c2c(-c3ccc(F)cc3)n[nH]c2C2CCN(C(=O)Cc3ccc4c(c3)OCO4)CC2)n1 [Example 931]
> 1 | CCCOc1ccc(C(=O)N2CCC(c3[nH]nc(-c4ccc(F)cc4)c3-c3nc(C(=O)NC(C)C)cs3)CC2)cc1 [Example 932]
> 1 | CC(C)NC(=O)c1csc(-c2c(-c3ccc(F)cc3)n[nH]c2C2CCN(C(=O)c3ccc(OC(C)C)cc3)CC2)n1 [Example 933]
> 1 | Cc1cccc(C(=O)N2CCC(c3[nH]nc(-c4ccc(F)cc4)c3-c3nc(C(=O)NC(C)C)cs3)CC2)c1[N+](=O)[O-] [Example 935]
> 1 | Cc1ccc([N+](=O)[O-])c(C(=O)N2CCC(c3[nH]nc(-c4ccc(F)cc4)c3-c3nc(C(=O)NC(C)C)cs3)CC2)c1 [Example 936]
> 1 | COc1ccc(OC)c(C(=O)N2CCC(c3[nH]nc(-c4ccc(F)cc4)c3-c3nc(C(=O)NC(C)C)cs3)CC2)c1 [Example 938]
> 1 | COc1ccc(C(=O)N2CCC(c3[nH]nc(-c4ccc(F)cc4)c3-c3nc(C(=O)NC(C)C)cs3)CC2)c(OC)c1 [Example 939]
> 1 | COc1cccc(OC)c1C(=O)N1CCC(c2[nH]nc(-c3ccc(F)cc3)c2-c2nc(C(=O)NC(C)C)cs2)CC1 [Example 940]
> 1 | COc1cc(OC)cc(C(=O)N2CCC(c3[nH]nc(-c4ccc(F)cc4)c3-c3nc(C(=O)NC(C)C)cs3)CC2)c1 [Example 941]
> 1 | COc1cccc(C(=O)N2CCC(c3[nH]nc(-c4ccc(F)cc4)c3-c3nc(C(=O)NC(C)C)cs3)CC2)c1OC [Example 942]
> 1 | Cc1ccc(SCC(=O)N2CCC(c3[nH]nc(-c4ccc(F)cc4)c3-c3nc(C(=O)NC(C)C)cs3)CC2)cc1 [Example 943]
> 1 | CC(C)NC(=O)c1csc(-c2c(-c3ccc(F)cc3)n[nH]c2C2CCN(C(=O)/C=C/c3ccc(Cl)cc3)CC2)n1 [Example 944]
> 1 | CC(C)NC(=O)c1csc(-c2c(-c3ccc(F)cc3)n[nH]c2C2CCN(C(=O)/C=C/c3ccccc3Cl)CC2)n1 [Example 945]
